This is an account of results in ChEMBL document CHEMBL1143868, “Synthesis, SAR, and Evaluation of 4-[2,4-Difluoro-5-(cyclopropylcarbamoyl)phenylamino]pyrrolo[2,1-f][1,2,4]triazine-based VEGFR-2 kinase inhibitors” (Bioorg Med Chem Lett, 2008).

Data set [1] can be described thus: Cmax in mouse at 50 mg/kg, po. The format is ADME, organism-based. As to conditions: in vivo. Also noted: dose 50 mg/kg, route oral.
In another data set the test system is Liver microsomes. As to the kind of experiment: Metabolic stability in human liver microsomes per mg of protein at 3 uM after 10 mins. Format: ADME, Microsome. For orientation: Liver microsomes are a subcellular fraction often used to study metabolism.
Data set [2] is described as follows: Tmax in mouse at 50 mg/kg, po. The settings on record: in vivo. The format is ADME, organism-based. More on the design: dose 50 mg/kg, route oral.
A further data set has as its system Liver. As to the kind of experiment: Metabolic stability in mouse liver microsomes per mg of protein at 3 uM after 10 mins. The format is ADME, Microsome.
The nature of data set [3]: AUC (0 to 4 hrs) in mouse at 50 mg/kg, po. The format is ADME, organism-based. As to conditions: plasma. Also noted: time < 4 hr, dose 50 mg/kg, route oral.

Each structure is given as a SMILES string.

For the compound `CC(C)c1c(-c2nnc(NCCCN(C)C)o2)cn2ncnc(Nc3cc(C(=O)NC4CC4)c(F)cc3F)c12`, the peak level in data set [1] (Cmax) was 8 µM. Also, the Stability amounted to 0.098 nmol/min/mg in the data set on Liver microsomes and 0.02 nmol/min/mg with Liver. Further, in data set [2], the Tmax (in general, the time at which the peak concentration occurs) was 1 h. Also, the AUC(0-t) – broadly, exposure summed from dosing to a finite time, without extrapolation to infinity – at 4 h in data set [3] was found to be 21.7 µM·h.
Turning to `CC(C)c1c(-c2nnc(NCCCCN)o2)cn2ncnc(Nc3cc(C(=O)NC4CC4)c(F)cc3F)c12`, in data set [1], the highest concentration (Cmax) (in general, the peak of the concentration-time curve) is 0.1 µM. The Stability with Liver microsomes came to 0.012 nmol/min/mg; with Liver it was 0 nmol/min/mg. Moreover, the time to peak (Tmax) in data set [2] is 0.5 h. In data set [3], this compound had an AUC(0-t) at 4 h of 0.2 µM·h.
For `CC(C)c1c(-c2nnc(OC3CCNCC3)o2)cn2ncnc(Nc3cc(C(=O)NC4CC4)c(F)cc3F)c12`, in that order: 15 µM, 0.023 nmol/min/mg, 0.007 nmol/min/mg, 4 h and 53.2 µM·h.
